Data taken from US10077261B2, “Imidazolin-5-one derivative useful as FASN inhibitors for the treatment of cancer” (Janssen Pharmaceutica NV, priority 2012, dated 2018).

Molecular target: T1, hFASN enzyme (full length) (Homo sapiens, UniProt P49327)
T1 construct: 10 μL hFASN enzyme (full length, 300 ng, purified in house); made in house
Test: Fatty Acid Synthase (FASN) inhibition scintillation proximity assay
Type: biochemical
Details: for inhibition at 10 µM: read-out: Human FASN % inhibition @ 10 μM, 10 μM test compound; for IC50: read-out: Human FASN pIC50 (converted)
Method: In this assay, inhibition of FASN activity is measured using ^3H-acetyl-CoA and malonyl-CoA as substrates. ^3H-Acetyl CoA is converted to ^3H-palmitate through a series of reactions by the FASN protein, which contains 7 functional domains and carries out 7 enzymatic reactions to ultimately produce ^3H-palmitate. The assay principle is based upon the fact that ^3H-acetyl-CoA is hydrophilic and the end product, ^3H-palmitate is hydrophobic.
10 μL assay buffer (100 mM KH2PO4 pH 7.5, 1 mM DTT) (20 μL in blanks) was added to a 384-well white optiplate plate (Perkin Elmer). 0.9 μL test compound (at concentrations of 30 μM, 10 μM, 3 μM, 1 μM, 0.30 μM, 0.10 μM, 0.03 μM and 0.01 μM)/DMSO and 10 μL hFASN enzyme (full length, 300 ng, purified in house) or 10 μL assay buffer was added to the wells. […] The reaction was stopped by adding 20 μL Streptavidin coupled imaging beads (25 mg/ml). After incubation for 30 minutes at room temperature in the dark, the 384 well plate was centrifuged at 1500 rpm for 3 minutes and was measured after at least 24 hrs by the LEADseeker™, measuring emission using a 610±20 nm pass filter.
where mLC and mHC were the means of the low control wells and high control wells on the plate, after manual exclusion of outliers. A plot of Controlmin versus test compound concentration was fitted to a 4-parameter logistic curve using a non-linear least squares regression method.

T1 sequence (P49327 whole entry): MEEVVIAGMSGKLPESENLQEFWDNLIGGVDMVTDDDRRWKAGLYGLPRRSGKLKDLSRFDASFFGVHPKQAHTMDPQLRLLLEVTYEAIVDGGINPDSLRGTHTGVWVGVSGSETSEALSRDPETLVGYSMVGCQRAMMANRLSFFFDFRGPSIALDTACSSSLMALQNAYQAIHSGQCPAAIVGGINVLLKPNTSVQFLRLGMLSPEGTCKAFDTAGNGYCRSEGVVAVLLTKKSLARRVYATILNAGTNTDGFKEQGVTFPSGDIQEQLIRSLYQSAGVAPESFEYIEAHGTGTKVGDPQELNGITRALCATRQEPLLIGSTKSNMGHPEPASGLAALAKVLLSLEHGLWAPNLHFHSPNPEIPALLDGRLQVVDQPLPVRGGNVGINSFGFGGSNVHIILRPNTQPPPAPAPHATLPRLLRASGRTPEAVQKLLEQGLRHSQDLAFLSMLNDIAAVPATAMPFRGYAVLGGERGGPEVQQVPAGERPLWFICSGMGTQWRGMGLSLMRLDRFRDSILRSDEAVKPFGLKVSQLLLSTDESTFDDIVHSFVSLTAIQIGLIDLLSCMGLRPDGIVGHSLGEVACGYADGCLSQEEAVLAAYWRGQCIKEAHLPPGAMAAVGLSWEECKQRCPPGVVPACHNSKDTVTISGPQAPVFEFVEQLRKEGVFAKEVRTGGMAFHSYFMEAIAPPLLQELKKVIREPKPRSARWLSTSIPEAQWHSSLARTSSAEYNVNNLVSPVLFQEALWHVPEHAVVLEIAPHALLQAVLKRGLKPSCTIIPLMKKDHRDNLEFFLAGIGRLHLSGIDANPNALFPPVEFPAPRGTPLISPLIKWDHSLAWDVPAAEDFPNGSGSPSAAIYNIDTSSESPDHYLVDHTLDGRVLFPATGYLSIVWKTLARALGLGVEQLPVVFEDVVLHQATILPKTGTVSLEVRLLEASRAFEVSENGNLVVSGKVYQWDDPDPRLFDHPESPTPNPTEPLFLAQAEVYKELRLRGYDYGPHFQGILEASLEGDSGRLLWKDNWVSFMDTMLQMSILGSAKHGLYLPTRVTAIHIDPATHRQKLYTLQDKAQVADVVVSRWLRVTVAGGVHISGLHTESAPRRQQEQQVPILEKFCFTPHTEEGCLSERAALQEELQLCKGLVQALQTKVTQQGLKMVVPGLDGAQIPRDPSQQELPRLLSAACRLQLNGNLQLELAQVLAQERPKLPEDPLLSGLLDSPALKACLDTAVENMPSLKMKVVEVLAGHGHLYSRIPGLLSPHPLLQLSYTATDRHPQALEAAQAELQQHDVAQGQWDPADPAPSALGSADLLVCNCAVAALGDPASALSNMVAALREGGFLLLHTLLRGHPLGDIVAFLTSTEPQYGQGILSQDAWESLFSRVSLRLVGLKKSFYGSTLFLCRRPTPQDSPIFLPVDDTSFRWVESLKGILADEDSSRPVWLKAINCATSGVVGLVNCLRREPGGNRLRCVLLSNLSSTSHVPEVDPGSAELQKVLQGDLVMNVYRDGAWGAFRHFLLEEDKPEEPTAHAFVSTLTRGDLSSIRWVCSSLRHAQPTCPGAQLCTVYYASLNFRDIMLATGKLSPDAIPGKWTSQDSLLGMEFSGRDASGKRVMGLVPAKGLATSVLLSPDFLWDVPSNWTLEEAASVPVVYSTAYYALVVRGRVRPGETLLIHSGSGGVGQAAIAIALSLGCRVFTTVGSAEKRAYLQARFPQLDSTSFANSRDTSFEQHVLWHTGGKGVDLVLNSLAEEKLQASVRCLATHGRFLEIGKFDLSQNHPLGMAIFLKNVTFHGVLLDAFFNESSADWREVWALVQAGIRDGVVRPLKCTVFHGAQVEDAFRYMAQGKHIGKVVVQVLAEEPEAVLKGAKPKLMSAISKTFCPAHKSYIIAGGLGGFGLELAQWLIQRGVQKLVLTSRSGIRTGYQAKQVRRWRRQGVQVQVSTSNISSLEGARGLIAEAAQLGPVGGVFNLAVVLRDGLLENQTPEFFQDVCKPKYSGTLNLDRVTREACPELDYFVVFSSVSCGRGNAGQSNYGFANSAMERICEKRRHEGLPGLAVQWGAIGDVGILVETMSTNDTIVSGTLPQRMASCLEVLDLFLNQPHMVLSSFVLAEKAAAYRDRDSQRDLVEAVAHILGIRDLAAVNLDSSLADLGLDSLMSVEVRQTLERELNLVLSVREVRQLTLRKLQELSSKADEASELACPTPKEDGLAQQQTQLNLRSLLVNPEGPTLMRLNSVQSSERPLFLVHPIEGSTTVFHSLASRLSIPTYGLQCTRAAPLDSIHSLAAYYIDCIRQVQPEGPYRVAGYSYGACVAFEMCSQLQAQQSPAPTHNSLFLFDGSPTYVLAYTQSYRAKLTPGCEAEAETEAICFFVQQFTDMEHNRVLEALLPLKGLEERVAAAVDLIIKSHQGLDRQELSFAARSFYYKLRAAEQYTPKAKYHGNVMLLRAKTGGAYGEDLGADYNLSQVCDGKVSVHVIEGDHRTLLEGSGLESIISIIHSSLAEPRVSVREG

Molecule `O=C(C1CC1)N1CCC(CN2C(=O)C3(CC3)N=C2c2ccc(-c3cccnc3)cc2)CC1` [compound 6, 6-{[1-(Cyclopropylcarbonyl)piperidin-4-yl]methyl}-5-(4-pyridin-3-ylphenyl)-4,6-diazaspiro[2.4]hept-4-en-7-one] has an inhibition at 10 µM of 61.6% and an IC50 of 7.24 µM.

For `COC(=O)N1CC(CN2C(=O)C3(CCOC3)N=C2c2ccc(-c3ccc4occc4c3)cc2)C1` (stereo not shown) [compound 904, methyl 3-((2-(4-(benzofuran-5-yl)phenyl)-4-oxo-7-oxa-1,3-diazaspiro[4.4]non-1-en-3-yl)methyl)azetidin-1-carboxylate], the inhibition at 10 µM was -24% and the IC50 was > 10 µM.

With `O=C(C1CC1)N1CCC[C@@H](CN2C(=O)C3(CC3)N=C2c2ccc(-c3ccc4occc4c3)cc2)C1` [compound 395, 5-[4-(1-Benzofuran-5-yl)phenyl]-6-{[(3R)-1-(cyclopropylcarbonyl)piperidin-3-yl]methyl}-4,6-diazaspiro[2.4]hept-4-en-7-one] the inhibition at 10 µM was 54% and the IC50 was 6.31 µM.

Work on `COc1cc(-c2ccc3[nH]ccc3c2)ccc1C1=NC2(CCCC2)C(=O)N1C[C@@H]1CCN(C(=O)C2CC2)C1` [compound 157, 3-{[(3R)-1-(Cyclopropylcarbonyl)pyrrolidin-3-yl]methyl}-2-[4-(1H-indol-5-yl)-2-methoxyphenyl]-1,3-diazaspiro[4.4]non-1-en-4-one] yielded an inhibition at 10 µM of 112% and an IC50 of 0.0676 µM.

`COC(=O)c1cccc(-c2ccc(C3=NC4(CC4)C(=O)N3C[C@@H]3CCN(C(=O)C4CC4)C3)cc2)c1` [compound 401, Methyl 4′-(6-{[(3R)-1-(cyclopropylcarbonyl)pyrrolidin-3-yl]methyl}-7-oxo-4,6-diazaspiro[2.4]hept-4-en-5-yl)biphenyl-3-carboxylate] was tested, and the inhibition at 10 µM was 70% and the IC50 was 3.72 µM.

`Cn1cc(-c2ccc(-c3ccc(C4=NC5(CCN(C(=O)C6CC6)CC5)C(=O)N4CC4CN(C(=O)C5CC5)C4)cc3)cc2)cn1` [compound 770, 8-(Cyclopropylcarbonyl)-3-{[1-(cyclopropylcarbonyl)azetidin-3-yl]methyl}-2-[4′-(1-methyl-1H-pyrazol-4-yl)biphenyl-4-yl]-1,3,8-triazaspiro[4.5]dec-1-en-4-one] gave an inhibition at 10 µM of 77% and an IC50 of 2.19 µM.

Molecule `CS(=O)(=O)N1CCC2(CC1)N=C(c1ccc(-c3ccc4[nH]ncc4c3)cc1)N(CC1CN(C(=O)C3CC3)C1)C2=O` [compound 763, 3-{[1-(Cyclopropylcarbonyl)azetidin-3-yl]methyl}-2-[4-(1H-indazol-5-yl)phenyl]-8-(methylsulfonyl)-1,3,8-triazaspiro[4.5]dec-1-en-4-one] has an inhibition at 10 µM of 63% and an IC50 of ~5.37 µM.

`Cc1cc(C2=NC3(CC3)C(=O)N2CC2CN(C(=O)C3CC3)C2)ccc1-c1ccc2sc(C)c(C)c2c1` [compound 447, 6-{[1-(Cyclopropylcarbonyl)azetidin-3-yl]methyl}-5-[4-(2,3-dimethyl-1-benzothiophen-5-yl)-3-methylphenyl]-4,6-diazaspiro[2.4]hept-4-en-7-one] was tested, and the inhibition at 10 µM was 79% and the IC50 was 1.2 µM.

For `COC(=O)N1CC2(C1)N=C(c1ccc(-c3ccc(-c4cnn(C)c4)cc3)cc1)N(C[C@@H]1CCN(C(=O)N3CCCC3)C1)C2=O` [compound 924, (S)-methyl 6-(4′-(1-methyl-1H-pyrazol-4-yl)-[1,1′-biphenyl]-4-yl)-8-oxo-7-((1-(pyrrolidine-1-carbonyl)pyrrolidin-3-yl)metrhyl)-2,5,7-triazaspiro[3.4]oct-5-ene-2-carboxylate], the inhibition at 10 µM was 41% and the IC50 was > 10 µM.

For `COC(=O)N1CC[C@@H](CN2C(=O)C3(CCOCC3)N=C2c2ccc(-c3ccc(-c4cnn(C)c4)cc3)cc2)C1` [compound 658, Methyl (3S)-3-({2-[4′-(1-methyl-1H-pyrazol-4-yl)biphenyl-4-yl]-4-oxo-8-oxa-1,3-diazaspiro[4.5]dec-1-en-3-yl}methyl)pyrrolidin-1-carboxlate], the inhibition at 10 µM was 52% and the IC50 was 8.71 µM.

`Cn1cc(-c2ccc(-c3ccc(C4=NC5(CCN(CCO)CC5)C(=O)N4CC4CN(C(=O)C5CC5)C4)cc3)cc2)cn1` [compound 772, 3-{[1-(Cyclopropylcarbonyl)azetidin-3-yl]methyl}-8-(2-hydroxyethyl)-2-[4′-(1-methyl-1H-pyrazol-4-yl)biphenyl-4-yl]-1,3,8-triazaspiro[4.5]dec-1-en-4-one] gave an inhibition at 10 µM of 64% and an IC50 of 3.98 µM.

Molecule `CC(O)C(=O)N1CC(CN2C(=O)C3(CCOC3)N=C2c2ccc(-c3ccc(-c4cnn(C)c4)cc3)cc2)C1` (stereo not shown) [compound 711, 3-{[1-(2-Hydroxypropanoyl)azetidin-3-yl]methyl}-2-[4′-(1-methyl-1H-pyrazol-4-yl)biphenyl-4-yl]-7-oxa-1,3-diazaspiro[4.4]non-1-en-4-one] has an inhibition at 10 µM of 60% and an IC50 of 6.03 µM.

For `O=C(C1CC1)N1CC[C@@H](CN2C(=O)C3(CC3)N=C2c2ccc(-c3ccc4c(c3)CCCO4)cc2)C1` [compound 464, 6-{[(3R)-1-(Cyclopropylcarbonyl)pyrrolidin-3-yl]methyl}-5-[4-(3,4-dihydro-2H-chromen-6-yl)phenyl]-4,6-diazaspiro[2.4]hept-4-en-7-one], the inhibition at 10 µM was 66% and the IC50 was 4.07 µM.

`Cc1ccc2ccc(-c3ccc(C4=NC5(CC5)C(=O)N4CC4CN(C(=O)C5CC5)C4)cc3)cc2n1` [compound 513, 6-{[1-(Cyclopropylcarbonyl)azetidin-3-yl]methyl}-5-[4-(2-methylquinolin-7-yl)phenyl]-4,6-diazaspiro[2.4]hept-4-en-7-one] was tested, and the inhibition at 10 µM was 85% and the IC50 was 1.23 µM.

For `O=C(C1CC1)N1CCC(CN2C(=O)C3(CC3)N=C2c2ccc(-c3ccc(O)cc3)cc2)CC1` [compound 55, 6-{[1-(Cyclopropylcarbonyl)piperidin-4-yl]methyl}-5-(4′-hydroxybiphenyl-4-yl)-4,6-diazaspiro[2.4]hept-4-en-7-one], the inhibition at 10 µM was 32.7% and the IC50 was > 10 µM.

With `Cc1cc(C2=NC3(CC3)C(=O)N2CC2CN(C(=O)C3CC3)C2)ccc1-c1ccc2oc(C)c(C)c2c1` [compound 814, 6-((1-(cyclopropanecarbonyl)azetidin-3-yl)methyl)-5-(4-(2,3-dimethylbenzofuran-5-yl)-3-methylphenyl)-4,6-diazaspiro[2.4]hept-4-en-7-one] the inhibition at 10 µM was 39% and the IC50 was > 10 µM.

`O=C(C1CC1)N1CC(CN2C(=O)C3(CCNCC3)N=C2c2ccc(-c3ccc4cnccc4c3)cc2)C1` [compound 132, 3-{[1-(Cyclopropylcarbonyl)azetidin-3-yl]methyl}-2-(4-isoquinolin-6-ylphenyl)-1,3,8-triazaspiro[4.5]dec-1-en-4-one] was tested, and the inhibition at 10 µM was 83.7% and the IC50 was 1.7 µM.

With `CC(C)C(=O)N1CCC2(CC1)N=C(c1ccc(-c3ccc4occc4c3)cc1)N(C[C@@H]1CCN(C(=O)C3CC3)C1)C2=O` [compound 151, 2-[4-(1-Benzofuran-5-yl)phenyl]-3-{[(3R)-1-(cyclopropylcarbonyl)pyrrolidin-3-yl]methyl}-8-(2-methylpropanoyl)-1,3,8-triazaspiro[4.5]dec-1-en-4-one] the inhibition at 10 µM was 112% and the IC50 was 0.129 µM.

For `Cn1ncc2cc(-c3ccc(C4=NC5(CCOC5)C(=O)N4C[C@@H]4CCN(S(C)(=O)=O)C4)cc3)ccc21` (stereo partly drawn) [compound 933, 2-(4-(1-methyl-1H-indazol-5-yl)phenyl)-3-(((S)-1-(methylsulfonyl)pyrrolidin-3-yl)methyl)-7-oxa-1,3-diazaspiro[4.4]non-1-en-4-one], the inhibition at 10 µM was 5% and the IC50 was > 10 µM.

`COc1ccccc1-c1ccc(C2=NC3(CC3)C(=O)N2CC2CCN(C(=O)C3CC3)CC2)cc1` [compound 98, 6-{[1-(Cyclopropylcarbonyl)piperidin-4-yl]methyl}-5-(2′-methoxybiphenyl-4-yl)-4,6-diazaspiro[2.4]hept-4-en-7-one] was tested, and the inhibition at 10 µM was 35.1% and the IC50 was > 10 µM.

With `Cc1ccc(-c2ccc(-c3ccc(C4=NC5(CC5)C(=O)N4C[C@@H]4CCCN(C(=O)C5CC5)C4)cc3)cc2)cc1` [compound 821, (R)-6-((1-(cyclopropanecarbonyl)piperidin-3-yl)methyl)-5-(4″-methyl-[1,1′:4′,1″- terphenyl]-4-yl)-4,6-diazaspiro[2.4]hept-4-en-7-one] the inhibition at 10 µM was 7% and the IC50 was > 10 µM.

For `O=C(C1CC1)N1CC(CN2C(=O)C3(CC3)N=C2c2ccc(-c3ccc(N4CCOCC4)nc3)cc2)C1` [compound 806, 6-((1-(cyclopropanecarbonyl)azetidin-3-yl)methyl)-5-(4-(6-morpholinopyridin-3-yl)phenyl)-4,6-diazaspiro[2.4]hept-4-en-7-one], the inhibition at 10 µM was -6% and the IC50 was > 10 µM.

`Cn1cc(-c2ccc(-c3ccc(C4=NC5(CCNCC5)C(=O)N4CC4CN(C(=O)C5CC5)C4)cc3)cc2)cn1` [compound 759, 3-{[1-(Cyclopropylcarbonyl)azetidin-3-yl]methyl}-2-[4′-(1-methyl-1H-pyrazol-4-yl)biphenyl-4-yl]-1,3,8-triazaspiro[4.5]dec-1-en-4-one] was tested, and the inhibition at 10 µM was 38% and the IC50 was 9.12 µM.
